{"source": "patent US11584961B2", "about": "“Biomarkers for inflammatory skin disease” (Incyte Corporation, priority 2018, dated 2023)", "key": {"[1]": {"system": "mild to moderate plaque psoriasis", "assay": "Double-blind, randomized, vehicle controlled dose ranging study of topical ruxolitinib (INCB018424) in plaque psoriasis, PASI response at day 28 and day 84 (Example 4)", "format": "in vivo, human", "settings": "for Classification: therapeutic response at day 84, individual subjects; for % Change in PASI at Day 28 / % Change in PASI at Day 84: individual subjects"}, "[2]": {"system": "mild to moderate plaque psoriasis", "assay": "Study of topical ruxolitinib (INCB018424) cream in plaque psoriasis, PASI response at day 28 (Example 1)", "format": "in vivo, human", "settings": "for Classification: therapeutic response at day 28, individual subjects; for % Change in PASI at Day 28: individual subjects"}}, "note": "Values joined by “and” are separate entries in the source; they are usually repeats but may differ in a detail not shown here. Identical values can stand only once. “Also recorded” adds a separate entry of the source.", "data": [{"smiles": "N#CC[C@H](C1CCCC1)n1cc(-c2ncnc3[nH]ccc23)cn1", "note": "[INCB018424, (3R)-3-cyclopentyl-3-[4-(7H-pyrrolo[2,3-d]pyrimidin-4-yl)-1H-pyrazol-1-yl]propanenitrile]", "values": [{"measurement": "Classification", "setting": "[1]; 0.5% QD", "result": "Responder (individuals were classified as responders if they had >=50% improvement in psoriasis area severity index on day 84); also recorded: Non-Responder"}, {"measurement": "Classification", "setting": "[1]; 1.0% QD", "result": "Non-Responder; also recorded: Responder (individuals were classified as responders if they had >=50% improvement in psoriasis area severity index on day 84)"}, {"measurement": "Classification", "setting": "[1]; 1.5% QD", "result": "Non-Responder; also recorded: Responder (individuals were classified as responders if they had >=50% improvement in psoriasis area severity index on day 84)"}, {"measurement": "% Change in PASI at Day 28", "setting": "[1]; topical cream 0.5% QD", "result": "−16.7% (2×) and −23.5% and −51.7% and −12.5% and −27.8%"}, {"measurement": "% Change in PASI at Day 84", "setting": "[1]; topical cream 0.5% QD", "result": "−75% and −50% and −23.5% and −66.7% and −12.5% and −45.9%"}, {"measurement": "% Change in PASI at Day 28", "setting": "[1]; topical cream 1.0% QD", "result": "−15.3% and 0% and 83.3%"}, {"measurement": "% Change in PASI at Day 84", "setting": "[1]; topical cream 1.0% QD", "result": "0% and −66.7% and 77.8%"}, {"measurement": "% Change in PASI at Day 28", "setting": "[1]; topical cream 1.5% QD", "result": "−12.6% and −4.7% and −28% and −50% and −32%"}, {"measurement": "% Change in PASI at Day 84", "setting": "[1]; topical cream 1.5% QD", "result": "−12.6% and −42.5% and −30% and −84.8% and −64%"}, {"measurement": "Classification", "setting": "[2]; 1.0% BID", "result": "Responder"}, {"measurement": "Classification", "setting": "[2]; 1.5% BID", "result": "Responder; also recorded: Non-Responder"}, {"measurement": "Classification", "setting": "[2]; 1.5% QD", "result": "Non-Responder; also recorded: Responder"}, {"measurement": "% Change in PASI at Day 28", "setting": "[2]; topical cream 1.0% BID", "result": "−60.0% and −66.7% (2×)"}, {"measurement": "% Change in PASI at Day 28", "setting": "[2]; topical cream 1.5% BID", "result": "−85.7% and −40.0% (2×) and −33.3% and −50.0% and −60.0%"}, {"measurement": "% Change in PASI at Day 28", "setting": "[2]; topical cream 1.5% QD", "result": "−33.3% and −80.0% and −50.0%"}]}]}
